Laboratory results: patent US10501552B2, “Multivalent molecules comprising DR5-binding domains” (MacroGenics, Inc., priority 2015, dated 2019)
Values belong to the substance of their own block, whether it stands above or below them.

Legend:
[1] = cited from earlier work
[2] = target: histidine tagged TRAIL (Homo sapiens, UniProt P50591); test: binding to TRAIL-His coat; settings: 2 μg/mL biotinylated; 1 μg/mL TRAIL-His coat
Protocol: The amount of immobilized biotinylated antibody was assessed.

[3] = target: cynomolgus monkey DR5 (His-tagged); test: Biacore analysis of binding kinetics; parameters: ka / kd: unit not given here; settings: tested as DR5×CD3 mAb 2 diabody
Protocol: Bispecific DR5×CD3 diabodies were incubated with His-tagged DR5 and the kinetics of binding was determined via Biacore analysis. […] FIG. 6, Panels A-D show the results for human DR5. FIG. 6, Panels E-H show the results for cynomolgus monkey DR5.

[4] = system: COLO205; test: […]-GLO cell viability assay with vorinostat; assay type: cell-based; settings: for Average % Ctrl: one day
Protocol: For the first study COLO205 cells were plated at 2×10^4 cells/well (in 96-well plates), and incubated overnight in F12/DMEM media supplemented with 10% FBS. […] Cell viability was determined using Promega […]-GLO® Luminescent Cell Viability Assay (Cat # G5430) essentially as described in the manufacturer's instructions to assay the amount of ATP present, which is a measure of the number of viable cells in the culture. Briefly, an […]-GLO® Reagent was added to the wells and mixed for two minutes to induce lysis and the luminescence was read in a in PerkinElmer EnVision multilabel plate reader.
Cell viability of cells treated with the test articles is normalized to the corresponding negative control (medium±vorinostat) which is set to 100% and reported in Table 12 as % of control for each test agent alone or % control for each test agent in combination with vorinostat. % of control values less than 100% indicate a reduction in viability and reflect the cytotoxicity of the test article alone or in combination with vorinostat.
The Net Gain (Average % Growth Inhibition)=% Medium Ctrl (10% FBS)−% Medium Ctrl (1/10 μM vorinostat), and represents increased cytotoxicity of the test article in combination with vorinostat over cells treated with vorinostat alone.

[5] = system: MDA-MB-175VII; test: […]-GLO cell viability assay with vorinostat; assay type: cell-based; settings: MDA-MB-175VII (Breast); 1 μg/ml + 1 μM Vorinostat
[6] = system: LNCap; test: […]-GLO cell viability assay with vorinostat; assay type: cell-based, human; settings: LNCap (Prostate); 1 μg/ml + 10 μM Vorinostat
[7] = system: Calu3; test: […]-GLO cell viability assay with vorinostat; assay type: cell-based; settings: Calu3 (Lung); 1 μg/ml + 1 μM Vorinostat
[8] = system: MDA-MB-361; test: […]-GLO cell viability assay with vorinostat; assay type: cell-based; settings: MDA-MB-361 (Breast); 1 μg/ml + 10 μM Vorinostat
[9] = system: DU145; test: […]-GLO cell viability assay with vorinostat; assay type: cell-based, human; settings: DU145 (Prostate); 1 μg/ml + 10 μM Vorinostat
[10] = system: SKBR3; test: […]-GLO cell viability assay with vorinostat; assay type: cell-based, human; settings: SKBR3 (Breast); 1 μg/ml + 1 μM Vorinostat
[11] = system: Hs700T; test: […]-GLO cell viability assay with vorinostat; assay type: cell-based; settings: Hs700T (Pancreas); 1 μg/ml + 1 μM Vorinostat
[12] = system: SKOV3; test: […]-GLO cell viability assay with vorinostat; assay type: cell-based; settings: SKOV3 (Ovary); 1 μg/ml + 1 μM Vorinostat
[13] = system: 786O; test: […]-GLO cell viability assay with vorinostat; assay type: cell-based; settings: 786O (Kidney); 1 μg/ml + 1 μM Vorinostat
[14] = system: AsPC1; test: […]-GLO cell viability assay with vorinostat; assay type: cell-based; settings: AsPC1 (Pancreas); 1 μg/ml + 1 μM Vorinostat
[15] = system: HPAFII; test: […]-GLO cell viability assay with vorinostat; assay type: cell-based; settings: HPAFII (Pancreas); 1 μg/ml + 10 μM Vorinostat
[16] = system: Hs746T; test: […]-GLO cell viability assay with vorinostat; assay type: cell-based; settings: Hs746T (Stomach); 1 μg/ml + 10 μM Vorinostat
[17] = system: MCF7; test: […]-GLO cell viability assay with vorinostat; assay type: cell-based; settings: MCF7 (Breast); 1 μg/ml + 10 μM Vorinostat
[18] = system: PC3; test: […]-GLO cell viability assay with vorinostat; assay type: cell-based; settings: PC3 (Prostate); 1 μg/ml + 1 μM Vorinostat
[19] = system: BT474; test: […]-GLO cell viability assay with vorinostat; assay type: cell-based; settings: BT474 (Breast); 1 μg/ml + 10 μM Vorinostat
[20] = system: A549; test: […]-GLO cell viability assay with vorinostat; assay type: cell-based, human; settings: A549 (Lung); 1 μg/ml + 10 μM Vorinostat
[21] = system: NCI-N87; test: […]-GLO cell viability assay with vorinostat; assay type: cell-based; settings: NCI-N87 (Stomach); 1 μg/ml + 1 μM Vorinostat
[22] = system: 22RV1; test: […]-GLO cell viability assay with vorinostat; assay type: cell-based; settings: 22RV1 (Prostate); 1 μg/ml + 10 μM Vorinostat
[23] = system: ES2; test: […]-GLO cell viability assay with vorinostat; assay type: cell-based; settings: ES2 (Ovary); 1 μg/ml + 10 μM Vorinostat
[24] = system: engrafted breast cancer cells; settings: cited from earlier work
[25] = system: astrocytoma and leukemia cells; settings: cited from earlier work
[26] = a few patients; higher doses (20 mg per kg); cited from earlier work

Chain of histidine tagged TRAIL (P50591 114-281 limits assumed): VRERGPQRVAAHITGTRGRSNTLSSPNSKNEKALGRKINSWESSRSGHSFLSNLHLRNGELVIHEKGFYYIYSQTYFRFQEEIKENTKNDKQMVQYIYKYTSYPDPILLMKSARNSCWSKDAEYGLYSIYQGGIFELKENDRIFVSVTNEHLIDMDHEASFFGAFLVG

Substance: soluble TRAIL: soluble TRAIL preparations
in vivo half-life [1]: approximately 30 minutes

amount of immobilized biotinylated antibody [2]: 0.288
Substance: DR5-Fc fusion: human DR5-Fc fusion protein, biotinylated, tested on TRAIL-His coat [reference compound]

Kd [3]: 16.4 nM
ka [3]: 2.5 × 10^6
kd [3]: 4.1 × 10^−2
Substance: DR5 mAb 4: conatumumab, known anti-human DR5 antibody; VL SEQ ID NO:62, VH SEQ ID NO:66

Substance: R&D TRAIL/His: His-tagged TRAIL (R&D systems) used as a positive control [reference compound]
Average % Ctrl ([4]; Vorinostat 0 μM, % Medium Ctrl (10% FBS), 10 ng/ml tetravalent molecule or 1 μg/ml DR5 mAb): 68.7%
Net Gain (Average % Growth Inhibition) ([4]; Vorinostat 0.1 μM): 15%
Average % Ctrl ([4]; Vorinostat 0.1 μM, normalized to medium + vorinostat): 54.1%
Net Gain (Average % Growth Inhibition) ([4]; Vorinostat 1 μM): 24%
Average % Ctrl ([4]; Vorinostat 1 μM, normalized to medium + vorinostat): 44.8%
Net Gain (Average % Growth Inhibition) [5]: 24.17%
Net Gain (Average % Growth Inhibition) [6]: 28.73%
Net Gain (Average % Growth Inhibition) [7]: 9.96%
Net Gain (Average % Growth Inhibition) [8]: 64.85%
Net Gain (Average % Growth Inhibition) [9]: 4.57%
Net Gain (Average % Growth Inhibition) [10]: 43.10%
Net Gain (Average % Growth Inhibition) [11]: 15.83%
Net Gain (Average % Growth Inhibition) [12]: 33.93%
Net Gain (Average % Growth Inhibition) [13]: 31.16%
Net Gain (Average % Growth Inhibition) [14]: 11.86%
Net Gain (Average % Growth Inhibition) [15]: 46.71%
Net Gain (Average % Growth Inhibition) [16]: 31.81%
Net Gain (Average % Growth Inhibition) [17]: 0.79%
Net Gain (Average % Growth Inhibition) [18]: 12.49%
Net Gain (Average % Growth Inhibition) [19]: 50.24%
Net Gain (Average % Growth Inhibition) [20]: 26.71%
Net Gain (Average % Growth Inhibition) [21]: 35.97%
Net Gain (Average % Growth Inhibition) [22]: 8.91%
Net Gain (Average % Growth Inhibition) [23]: 79.12%

Substance: TRA-8/CS-1008: humanized anti-DR5 antibody (Daiichi Sankyo)
antitumor activity in vivo [24]: high antitumor activity
antitumor activity in vitro [25]: high antitumor activity

Kd [3]: 13.3 nM
ka [3]: 3.3 × 10^6
kd [3]: 4.4 × 10^−2
Substance: DR5 mAb 3: drozitumab, known anti-human DR5 antibody; VL SEQ ID NO:54, VH SEQ ID NO:58

Substance: lexatumummab: anti-DR5 agonist antibody from Human Genome Sciences
hepatotoxicity [26]: Hepatotoxicity with increased serum alanine aminotransferase, aspartate aminotransferase and bilirubin
